Measurements: the supplement of paper PMC10307832

Columns and labels:
Test in all cases: relative viability (nuclei count vs DMSO), 5 days (fraction); higher = more cells survive
NCI-H322M = test system: NCI-H322M
Outline: (§1)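 Relative viability was taken as the ratio of nuclei in treated wells to nuclei in vehicle wells. Lung cancer cell lines in 1536-well plates received compounds by pin tool one day after seeding, either one drug alone or a fixed anchor-drug dose plus five library-drug doses (not always all listed) in √10 steps. Nuclei were counted on 4× images after 5 days of treatment, and values are medians of duplicate plates.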

NCI-H838 = test system: NCI-H838
Outline: as §1

UMC-11 = test system: UMC-11
Outline: as §1

RERF-LC-KJ = test system: RERF-LC-KJ
Outline: as §1

ABC-1 = test system: ABC-1
Outline: as §1

NCI-H2023 = test system: NCI-H2023
Outline: as §1

A-427 = test system: A-427
Outline: as §1

NCI-H1793 = test system: NCI-H1793
Outline: as §1

NCI-H2009 = test system: NCI-H2009
Outline: as §1

NCI-H441 = test system: NCI-H441
Outline: as §1

NCI-H1944 = test system: NCI-H1944
Outline: as §1

HCC-15 = test system: HCC-15
Outline: as §1

NCI-H1915 = test system: NCI-H1915
Outline: as §1

NCI-H1734 = test system: NCI-H1734
Outline: as §1

SW 1573 = test system: SW 1573
Outline: as §1

NCI-H2347 = test system: NCI-H2347
Outline: as §1

EPLC-272H = test system: EPLC-272H
Outline: as §1

LC-2-ad = test system: LC-2-ad
Outline: as §1

LK-2 = test system: LK-2
Outline: as §1

NCI-H647 = test system: NCI-H647
Outline: as §1

NCI-H358 = test system: NCI-H358
Outline: as §1

Question: Which relative viability (NCI-H322M; first compound 0.2 µM) does the source give for `Cc1csc(=NC2CCCCC2)n1/N=C/c1ccc(O)c(O)c1O` [MIM1] + C[C@]1(O)C[C@@H](c2nc(-c3ccc4ccc(-c5ccccc5)nc4c3)c3c(N)nccn32)C1 [Linsitinib] (partner 1 µM) here?
Answer: 1.01

Question: And the relative viability (NCI-H322M; first compound 0.6325 µM)?
Answer: 0.981

Question: What about the relative viability (NCI-H322M; first compound 2 µM) of the same molecule?
Answer: 1.05

Question: And the relative viability (NCI-H322M; first compound 6.325 µM)?
Answer: 0.905

Question: What about the relative viability (NCI-H322M; first compound 20 µM) of the same molecule?
Answer: 0.912

Question: What about the relative viability (NCI-H838; first compound 0.2 µM) of the same molecule?
Answer: 0.887

Question: What about the relative viability (NCI-H838; first compound 0.6325 µM) of the same molecule?
Answer: 1.1

Question: What about the relative viability (NCI-H838; first compound 2 µM) of the same molecule?
Answer: 0.851

Question: And the relative viability (NCI-H838; first compound 6.325 µM)?
Answer: 0.765

Question: What about the relative viability (NCI-H838; first compound 20 µM) of the same molecule?
Answer: 0.464

Question: And the relative viability (UMC-11; first compound 0.2 µM)?
Answer: 1.02

Question: And the relative viability (UMC-11; first compound 0.6325 µM)?
Answer: 1.01

Question: And the relative viability (UMC-11; first compound 2 µM)?
Answer: 1.02

Question: What about the relative viability (UMC-11; first compound 6.325 µM) of the same molecule?
Answer: 0.66

Question: And the relative viability (UMC-11; first compound 20 µM)?
Answer: 0.233

Question: And the relative viability (RERF-LC-KJ; first compound 0.2 µM)?
Answer: 0.81

Question: What about the relative viability (RERF-LC-KJ; first compound 0.6325 µM) of the same molecule?
Answer: 0.866

Question: And the relative viability (RERF-LC-KJ; first compound 2 µM)?
Answer: 0.773

Question: And the relative viability (RERF-LC-KJ; first compound 6.325 µM)?
Answer: 0.473

Question: What about the relative viability (RERF-LC-KJ; first compound 20 µM) of the same molecule?
Answer: 0.287

Question: And the relative viability (ABC-1; first compound 0.2 µM)?
Answer: 0.769

Question: What about the relative viability (ABC-1; first compound 0.6325 µM) of the same molecule?
Answer: 1.14

Question: What about the relative viability (ABC-1; first compound 2 µM) of the same molecule?
Answer: 0.651

Question: And the relative viability (ABC-1; first compound 6.325 µM)?
Answer: 0.388

Question: What about the relative viability (ABC-1; first compound 20 µM) of the same molecule?
Answer: 0.24

Question: And the relative viability (NCI-H2023; first compound 0.2 µM)?
Answer: 0.625

Question: What about the relative viability (NCI-H2023; first compound 0.6325 µM) of the same molecule?
Answer: 0.739

Question: And the relative viability (NCI-H2023; first compound 2 µM)?
Answer: 0.615

Question: And the relative viability (NCI-H2023; first compound 6.325 µM)?
Answer: 0.482

Question: What about the relative viability (NCI-H2023; first compound 20 µM) of the same molecule?
Answer: 0.443

Question: And the relative viability (A-427; first compound 0.2 µM)?
Answer: 1.09

Question: What about the relative viability (A-427; first compound 0.6325 µM) of the same molecule?
Answer: 1.14

Question: What about the relative viability (A-427; first compound 2 µM) of the same molecule?
Answer: 1.11

Question: And the relative viability (A-427; first compound 6.325 µM)?
Answer: 1.07

Question: And the relative viability (A-427; first compound 20 µM)?
Answer: 0.505

Question: What about the relative viability (NCI-H1793; first compound 0.2 µM) of the same molecule?
Answer: 0.799

Question: And the relative viability (NCI-H1793; first compound 0.6325 µM)?
Answer: 0.902

Question: What about the relative viability (NCI-H1793; first compound 2 µM) of the same molecule?
Answer: 0.809

Question: What about the relative viability (NCI-H1793; first compound 6.325 µM) of the same molecule?
Answer: 0.925

Question: What about the relative viability (NCI-H1793; first compound 20 µM) of the same molecule?
Answer: 1.02

Question: What about the relative viability (NCI-H2009; first compound 0.2 µM) of the same molecule?
Answer: 1.25

Question: What about the relative viability (NCI-H2009; first compound 0.6325 µM) of the same molecule?
Answer: 1.18

Question: What about the relative viability (NCI-H2009; first compound 2 µM) of the same molecule?
Answer: 1.18

Question: And the relative viability (NCI-H2009; first compound 6.325 µM)?
Answer: 1.06

Question: What about the relative viability (NCI-H2009; first compound 20 µM) of the same molecule?
Answer: 1.05

Question: What about the relative viability (NCI-H441; first compound 0.2 µM) of the same molecule?
Answer: 0.612

Question: What about the relative viability (NCI-H441; first compound 0.6325 µM) of the same molecule?
Answer: 0.528

Question: What about the relative viability (NCI-H441; first compound 2 µM) of the same molecule?
Answer: 0.543

Question: And the relative viability (NCI-H441; first compound 6.325 µM)?
Answer: 0.709

Question: What about the relative viability (NCI-H441; first compound 20 µM) of the same molecule?
Answer: 0.145

Question: What about the relative viability (NCI-H1944; first compound 0.2 µM) of the same molecule?
Answer: 1.12

Question: And the relative viability (NCI-H1944; first compound 0.6325 µM)?
Answer: 1.13

Question: What about the relative viability (NCI-H1944; first compound 2 µM) of the same molecule?
Answer: 0.923

Question: What about the relative viability (NCI-H1944; first compound 6.325 µM) of the same molecule?
Answer: 1

Question: What about the relative viability (NCI-H1944; first compound 20 µM) of the same molecule?
Answer: 1.46

Question: What about the relative viability (HCC-15; first compound 0.2 µM) of the same molecule?
Answer: 0.901

Question: What about the relative viability (HCC-15; first compound 0.6325 µM) of the same molecule?
Answer: 0.808

Question: And the relative viability (HCC-15; first compound 2 µM)?
Answer: 0.941

Question: And the relative viability (HCC-15; first compound 6.325 µM)?
Answer: 0.476

Question: What about the relative viability (HCC-15; first compound 20 µM) of the same molecule?
Answer: 0.211

Question: And the relative viability (NCI-H1915; first compound 0.2 µM)?
Answer: 1.09

Question: What about the relative viability (NCI-H1915; first compound 0.6325 µM) of the same molecule?
Answer: 1.03

Question: And the relative viability (NCI-H1915; first compound 2 µM)?
Answer: 1.08

Question: And the relative viability (NCI-H1915; first compound 6.325 µM)?
Answer: 0.978

Question: And the relative viability (NCI-H1915; first compound 20 µM)?
Answer: 0.872

Question: And the relative viability (NCI-H1734; first compound 0.2 µM)?
Answer: 0.829

Question: What about the relative viability (NCI-H1734; first compound 0.6325 µM) of the same molecule?
Answer: 1.01

Question: And the relative viability (NCI-H1734; first compound 2 µM)?
Answer: 0.853

Question: What about the relative viability (NCI-H1734; first compound 6.325 µM) of the same molecule?
Answer: 0.754

Question: And the relative viability (NCI-H1734; first compound 20 µM)?
Answer: 0.422

Question: What about the relative viability (SW 1573; first compound 0.2 µM) of the same molecule?
Answer: 0.872

Question: What about the relative viability (SW 1573; first compound 0.6325 µM) of the same molecule?
Answer: 0.792

Question: What about the relative viability (SW 1573; first compound 2 µM) of the same molecule?
Answer: 0.678

Question: What about the relative viability (SW 1573; first compound 6.325 µM) of the same molecule?
Answer: 0.767

Question: What about the relative viability (SW 1573; first compound 20 µM) of the same molecule?
Answer: 0.607

Question: And the relative viability (NCI-H2347; first compound 0.2 µM)?
Answer: 0.985

Question: And the relative viability (NCI-H2347; first compound 0.6325 µM)?
Answer: 0.994

Question: What about the relative viability (NCI-H2347; first compound 2 µM) of the same molecule?
Answer: 0.98

Question: What about the relative viability (NCI-H2347; first compound 6.325 µM) of the same molecule?
Answer: 0.736

Question: And the relative viability (NCI-H2347; first compound 20 µM)?
Answer: 0.656

Question: What about the relative viability (EPLC-272H; first compound 0.2 µM) of the same molecule?
Answer: 1.06

Question: What about the relative viability (EPLC-272H; first compound 0.6325 µM) of the same molecule?
Answer: 1.15

Question: And the relative viability (EPLC-272H; first compound 2 µM)?
Answer: 1.17

Question: And the relative viability (EPLC-272H; first compound 6.325 µM)?
Answer: 1.26

Question: What about the relative viability (EPLC-272H; first compound 20 µM) of the same molecule?
Answer: 0.988

Question: And the relative viability (LC-2-ad; first compound 0.2 µM)?
Answer: 0.794

Question: And the relative viability (LC-2-ad; first compound 0.6325 µM)?
Answer: 0.744

Question: What about the relative viability (LC-2-ad; first compound 2 µM) of the same molecule?
Answer: 0.856

Question: What about the relative viability (LC-2-ad; first compound 6.325 µM) of the same molecule?
Answer: 0.547

Question: What about the relative viability (LC-2-ad; first compound 20 µM) of the same molecule?
Answer: 0.132

Question: And the relative viability (LK-2; first compound 0.2 µM)?
Answer: 0.801

Question: What about the relative viability (LK-2; first compound 0.6325 µM) of the same molecule?
Answer: 0.631

Question: What about the relative viability (LK-2; first compound 2 µM) of the same molecule?
Answer: 0.519

Question: What about the relative viability (LK-2; first compound 6.325 µM) of the same molecule?
Answer: 0.566

Question: What about the relative viability (LK-2; first compound 20 µM) of the same molecule?
Answer: 0.179

Question: What about the relative viability (NCI-H647; first compound 0.2 µM) of the same molecule?
Answer: 1.28

Question: And the relative viability (NCI-H647; first compound 0.6325 µM)?
Answer: 1.07

Question: What about the relative viability (NCI-H647; first compound 2 µM) of the same molecule?
Answer: 1.32

Question: What about the relative viability (NCI-H647; first compound 6.325 µM) of the same molecule?
Answer: 0.807

Question: And the relative viability (NCI-H647; first compound 20 µM)?
Answer: 0.868

Question: And the relative viability (NCI-H358; first compound 0.2 µM)?
Answer: 0.703

Question: And the relative viability (NCI-H358; first compound 0.6325 µM)?
Answer: 0.651

Question: And the relative viability (NCI-H358; first compound 2 µM)?
Answer: 0.694

Question: What about the relative viability (NCI-H358; first compound 6.325 µM) of the same molecule?
Answer: 0.324

Question: And the relative viability (NCI-H358; first compound 20 µM)?
Answer: 0.341
